# Measurements: US6451733B1, “Synergistic herbicidal methods and compositions” (BASF Aktiengesellschaft, priority 1999, dated 2002)
# Columns and labels:
# Experiment in all cases: Field trial, post-emergence weed control
# Format in all cases: in vivo
# [1] = tested on: Brassica napus (imidazolinone tolerant)
# Procedure: (§1) Synergism of the combination is then determined by comparing the observed response of the combination to the expected (or predicted) response as calculated from the observed responses of each individual component alone. If the observed response of the combination is greater than the expected (or predicted) response then the combination is said to be synergistic and falls within the definition of synergistic effect as previously defined.
# (§2) In similar manner for the case of three-way combination, C3; is composed of component X plus component Y plus […] and Obs. designates the observed response of the combination C3. [formula]
# (§3) Grassy and broadleaved weeds are either seeded perpendicular to the direction of the crop or broadcast in early to mid-May. The crop is seeded after the weed seed. Row width is 18 cm. The seed is drilled in with a Roger's 1.8 m width drill to a depth of 5 cm.
# (§4) All trials employ standard accepted weed science procedures. Applications are made with a Roger's CO2-powered shrouded sprayer. Test design is a modified randomized complete block design with four replications. All applications are made post-emergence to the weeds and crop.
# (§5) The test solutions are prepared by tank-mixing sufficient quantities of aqueous solutions and/or dispersions of the test compounds.
# (§6) The treated plots are examined at intervals during the growing season and rated for percent control of weeds and crop injury. The data listed is an average of the replicates for that treatment. The Colby method of analysis is used to determine the resultant biological effect of the combination treatment as compared to the biological effect of each component when applied alone.
# Galeopsis tetrahit = tested on: Galeopsis tetrahit
# Procedure: as §1, with “In the following examples, synergism for two-way combinations is determined by the Colby^1 method, i.e. the expected (or predicted) response of the combination is calculated by taking the product of the observed response for each individual component of the combination when applied alone divided by 100 and subtracting this value from the sum of the observed response for each component when applied alone. Synergism” for “Synergism”
# as §2, §3, §4, §5, §6
# Avena fatua = tested on: Avena fatua
# Procedure: as §1, with “In the following examples, synergism for two-way combinations is determined by the Colby^1 method, i.e. the expected (or predicted) response of the combination is calculated by taking the product of the observed response for each individual component of the combination when applied alone divided by 100 and subtracting this value from the sum of the observed response for each component when applied alone. Synergism” for “Synergism”
# as §2, §3, §4, §5, §6
# Vaccaria pyramaidata = tested on: Vaccaria pyramaidata
# Procedure: as §1, with “In the following examples, synergism for two-way combinations is determined by the Colby^1 method, i.e. the expected (or predicted) response of the combination is calculated by taking the product of the observed response for each individual component of the combination when applied alone divided by 100 and subtracting this value from the sum of the observed response for each component when applied alone. Synergism” for “Synergism”
# as §2, §3, §4, §5, §6
# Sinapis arvensis = tested on: Sinapis arvensis
# Procedure: as §1, with “In the following examples, synergism for two-way combinations is determined by the Colby^1 method, i.e. the expected (or predicted) response of the combination is calculated by taking the product of the observed response for each individual component of the combination when applied alone divided by 100 and subtracting this value from the sum of the observed response for each component when applied alone. Synergism” for “Synergism”
# as §2, §3, §4, §5, §6
# Polygonum convolvulus = tested on: Polygonum convolvulus
# Procedure: as §1, with “In the following examples, synergism for two-way combinations is determined by the Colby^1 method, i.e. the expected (or predicted) response of the combination is calculated by taking the product of the observed response for each individual component of the combination when applied alone divided by 100 and subtracting this value from the sum of the observed response for each component when applied alone. Synergism” for “Synergism”
# as §2, §3, §4, §5, §6
# Brassica napus = tested on: Brassica napus
# Procedure: as §1, with “In the following examples, synergism for two-way combinations is determined by the Colby^1 method, i.e. the expected (or predicted) response of the combination is calculated by taking the product of the observed response for each individual component of the combination when applied alone divided by 100 and subtracting this value from the sum of the observed response for each component when applied alone. Synergism” for “Synergism”
# as §2, §3, §4, §5, §6
# Galium aparine = tested on: Galium aparine
# Procedure: as §1, with “In the following examples, synergism for two-way combinations is determined by the Colby^1 method, i.e. the expected (or predicted) response of the combination is calculated by taking the product of the observed response for each individual component of the combination when applied alone divided by 100 and subtracting this value from the sum of the observed response for each component when applied alone. Synergism” for “Synergism”
# as §2, §3, §4, §5, §6
# Salsola kali = tested on: Salsola kali
# Procedure: as §1, with “In the following examples, synergism for two-way combinations is determined by the Colby^1 method, i.e. the expected (or predicted) response of the combination is calculated by taking the product of the observed response for each individual component of the combination when applied alone divided by 100 and subtracting this value from the sum of the observed response for each component when applied alone. Synergism” for “Synergism”
# as §2, §3, §4, §5, §6
# Kochia scoparia = tested on: Kochia scoparia
# Procedure: as §1, with “In the following examples, synergism for two-way combinations is determined by the Colby^1 method, i.e. the expected (or predicted) response of the combination is calculated by taking the product of the observed response for each individual component of the combination when applied alone divided by 100 and subtracting this value from the sum of the observed response for each component when applied alone. Synergism” for “Synergism”
# as §2, §3, §4, §5, §6
# Chenopodium album = tested on: Chenopodium album
# Procedure: as §1, with “In the following examples, synergism for two-way combinations is determined by the Colby^1 method, i.e. the expected (or predicted) response of the combination is calculated by taking the product of the observed response for each individual component of the combination when applied alone divided by 100 and subtracting this value from the sum of the observed response for each component when applied alone. Synergism” for “Synergism”
# as §2, §3, §4, §5, §6
# Setaria viridis = tested on: Setaria viridis
# Procedure: as §1, with “In the following examples, synergism for two-way combinations is determined by the Colby^1 method, i.e. the expected (or predicted) response of the combination is calculated by taking the product of the observed response for each individual component of the combination when applied alone divided by 100 and subtracting this value from the sum of the observed response for each component when applied alone. Synergism” for “Synergism”
# as §2, §3, §4, §5, §6
# [2] = tested on: Polygonum (smartweed) spp.
# Procedure: as §1, with “In the following examples, synergism for two-way combinations is determined by the Colby^1 method, i.e. the expected (or predicted) response of the combination is calculated by taking the product of the observed response for each individual component of the combination when applied alone divided by 100 and subtracting this value from the sum of the observed response for each component when applied alone. Synergism” for “Synergism”
# as §2, §3, §4, §5, §6
# Stellaria media = tested on: Stellaria media
# Procedure: as §1, with “In the following examples, synergism for two-way combinations is determined by the Colby^1 method, i.e. the expected (or predicted) response of the combination is calculated by taking the product of the observed response for each individual component of the combination when applied alone divided by 100 and subtracting this value from the sum of the observed response for each component when applied alone. Synergism” for “Synergism”
# as §2, §3, §4, §5, §6
# Amaranthus retroflexus = tested on: Amaranthus retroflexus
# Procedure: as §1, with “In the following examples, synergism for two-way combinations is determined by the Colby^1 method, i.e. the expected (or predicted) response of the combination is calculated by taking the product of the observed response for each individual component of the combination when applied alone divided by 100 and subtracting this value from the sum of the observed response for each component when applied alone. Synergism” for “Synergism”
# as §3, §4, §5, §6
molecule,measurement,setting,value
"O=C(O)COc1ccc(Cl)cc1Cl [2,4-D, 2,4-dichlorophenoxyacetic acid]",Percent Control,[1]; 280 g/ha,94%
same,Percent Control,Galeopsis tetrahit; 280 g/ha,2%
same,Percent Control,Avena fatua; 280 g/ha,2%
same,Percent Control,Vaccaria pyramaidata; 280 g/ha,51%
same,Percent Control,Sinapis arvensis; 280 g/ha,92%
same,Percent Control,Polygonum convolvulus; 280 g/ha,48%
same,Percent Control,Brassica napus; 280 g/ha,93%
same,Percent Control,Galium aparine; 280 g/ha,43%
same,Percent Control,Salsola kali; 280 g/ha,35%
same,Percent Control,Kochia scoparia; 280 g/ha,52%
same,Percent Control,Chenopodium album; 280 g/ha,91%
same,Percent Control,Setaria viridis; 280 g/ha,0%
same,Percent Control,[2]; 280 g/ha,53%
same,Percent Control,Stellaria media; 280 g/ha,10%
O=C(O)c1nc(Cl)ccc1Cl [clopyralid],Percent Control,[1]; 150 g/ha,8%
same,Percent Control,Sinapis arvensis; 150 g/ha,16%
same,Percent Control,Brassica napus; 150 g/ha,12%
same,Percent Control,Galium aparine; 150 g/ha,0%
same,Percent Control,Chenopodium album; 150 g/ha,51%
same,Percent Control,Stellaria media; 150 g/ha,10%
CCOC(=O)[C@@H](C)Oc1ccc(Oc2nc3ccc(Cl)cc3o2)cc1 [fenoxaprop-p-ethyl],Percent Control,[1]; 72 g/ha,0%
same,Percent Control,Vaccaria pyramaidata; 72 g/ha,0%
same,Percent Control,Sinapis arvensis; 72 g/ha,0%
same,Percent Control,Polygonum convolvulus; 72 g/ha,0%
same,Percent Control,Brassica napus; 72 g/ha,0%
same,Percent Control,Chenopodium album; 72 g/ha,0%
same,Percent Control,Setaria viridis; 72 g/ha,98%
same,Percent Control,Amaranthus retroflexus; 72 g/ha,9%
O=C(Nc1ccc(F)cc1)c1cccc(Oc2cccc(C(F)(F)F)c2)n1 [picolinafen],Percent Control,[1]; 50 g/ha,65%
same,Percent Control,Galeopsis tetrahit; 50 g/ha,59%
same,Percent Control,Avena fatua; 50 g/ha,5%
same,Percent Control,Vaccaria pyramaidata; 50 g/ha,63%
same,Percent Control,Sinapis arvensis; 50 g/ha,78%
same,Percent Control,Polygonum convolvulus; 50 g/ha,54%
same,Percent Control,Brassica napus; 50 g/ha,70%
same,Percent Control,Galium aparine; 50 g/ha,28%
same,Percent Control,Salsola kali; 50 g/ha,56%
same,Percent Control,Kochia scoparia; 50 g/ha,59%
same,Percent Control,Chenopodium album; 50 g/ha,57%
same,Percent Control,Setaria viridis; 50 g/ha,14%
same,Percent Control,[2]; 50 g/ha,26%
same,Percent Control,Stellaria media; 50 g/ha,64%
same,Percent Control,Amaranthus retroflexus; 50 g/ha,90%
CCO/N=C(\CC)C1=C(O)CC(c2c(C)cc(C)cc2C)CC1=O (centres unmarked) [tralkoxydim],Percent Control,[1]; 200 g/ha,0%
same,Percent Control,Avena fatua; 200 g/ha,97%
same,Percent Control,Vaccaria pyramaidata; 200 g/ha,0%
same,Percent Control,Sinapis arvensis; 200 g/ha,0%
same,Percent Control,Polygonum convolvulus; 200 g/ha,0%
same,Percent Control,Brassica napus; 200 g/ha,0%
same,Percent Control,Chenopodium album; 200 g/ha,0%
same,Percent Control,Amaranthus retroflexus; 200 g/ha,1%
imazamethabenz methyl,Percent Control,[1]; 400 g/ha,0%
same,Percent Control,Galeopsis tetrahit; 400 g/ha,4%
same,Percent Control,Avena fatua; 400 g/ha,88%
same,Percent Control,Vaccaria pyramaidata; 400 g/ha,20%
same,Percent Control,Galium aparine; 400 g/ha,48%
same,Percent Control,Salsola kali; 400 g/ha,9%
same,Percent Control,Kochia scoparia; 400 g/ha,31%
same,Percent Control,Chenopodium album; 400 g/ha,18%
same,Percent Control,Setaria viridis; 400 g/ha,10%
same,Percent Control,[2]; 400 g/ha,76%
same,Percent Control,Stellaria media; 400 g/ha,8%
